Source: publication PMC10112268, “Inhibition of Human Coronaviruses by Combinations of Host-Targeted and Direct-Acting Antivirals” (Antimicrobial Agents and Chemotherapy, 2023)
Read-outs that look alike come from different tables or passages of the source.

Columns and labels:
[1] = system: SARS-CoV-2 isolate MAD6 (Wuhan-Hu-1 strain); assay: Virus yield inhibition in infected Calu3 2B4 cells, plaque assay on Vero E6; assay type: cell-based; conditions: for IC50 / SARS-CoV-2 isolate MAD6 titers: 24 hpi; for IC50: read-out: IC50, virus yield; for SARS-CoV-2 titers: at 100 μM, Fig. 3, no drug 3.±0.1 × 10^5; for SARS-CoV-2 isolate MAD6 titers: no drug 3.4 ± 1 × 10^5
HCoV-229E-GFP [2] = assay: microbe, parasite or virus in culture; assay type: cell-based; conditions: for IC50: Human coronavirus 229E
HCoV-OC43 [3] = assay: microbe, parasite or virus in culture; assay type: cell-based
HCoV-229E-GFP [4] = assay type: cell-based; conditions: no drug 3.5 ± 0.6 × 10^6
[5] = system: SARS-CoV-2 isolate 39896362_AG (omicron strain); assay: microbe, parasite or virus in culture; assay type: cell-based; conditions: for IC50: Severe acute respiratory syndrome coronavirus 2, Vero C1008, omicron strain, AV from 1 h before adsorption, read-out: IC50, virus yield; for IC50 / SARS-CoV-2 isolate 39896362_AG titers: Fig. 1; for SARS-CoV-2 isolate 39896362_AG titers: no drug 1 ± 0.1 × 10^5
in vitro [6] = conditions: human, CC50 (MTT assay), HCT-8
SARS-CoV-2 (MAD6) = assay: Drug combination (synergy) study, virus yield in Calu3 2B4, CompuSyn; assay type: cell-based; conditions: for SARS-CoV-2 titers: no drug 3.2 ± 0.2 × 10^5; for average DRI: for the named drug over its combinations, at Fa = 0.5 to 0.95
in vitro [7] = conditions: African green monkey
HCoV-OC43 [8] = assay type: cell-based; conditions: no drug 3.2 ± 0.2 × 10^6
in vitro [9] = conditions: human, CC50 (MTT assay), Huh-7
in vitro [10] = conditions: human
HCoV-229E-GFP [11] = assay: Direct virucidal effect on virus particles; conditions: 10^5 PFU, 1 h at room temperature; LG 0 to 300 μM, VPA 0 to 300 mM
HCoV-OC43 [12] = assay: Direct virucidal effect on virus particles; conditions: 10^5 PFU, 1 h at room temperature; LG 0 to 300 μM, VPA 0 to 300 mM
[13] = system: SARS-CoV-2 isolate MAD6 (Wuhan-Hu-1 strain); assay: Time of addition assay; assay type: cell-based; conditions: for IC50: 24 hpi, read-out: IC50, SARS-CoV-2 production
HCoV-229E-GFP [14] = assay: Time of addition assay; assay type: cell-based; conditions: for IC50: Human coronavirus 229E, 24 hpi
HCoV-OC43 [15] = assay: Time of addition assay; assay type: cell-based; conditions: for IC50: 48 hpi
SARS-CoV-2 = assay: Direct virucidal effect on virus particles; conditions: 10^5 PFU, 1 h at room temperature; LG 0 to 300 μM, VPA 0 to 300 mM
TGEV = assay: Antiviral effect against TGEV in WSL or ST cells, plaque assay on ST; assay type: cell-based, swine coronavirus TGEV; conditions: LG in WSL cells, VPA in ST cells
Protocol: Figure S2. […] The inhibitory effect […]
of LG or VPA was assayed on triplicate cultures of TGEV-infected WSL (wild swine macrophage cell line) or ST (swine testis) cells, respectively. After 1 h-pre-incubation with AVs, triplicate cultures were infected with the corresponding virus, at a MOI of 2 PFU/cell, in a reduced volume of medium containing the AV, for 2h, virus inoculum removed and cells washed twice with medium, before the addition of drug-containing fresh medium (supplemented with 2% FBS). Cultures were then incubated for 24 h at 37 °C; total virus (intracellular and extracellular) production was evaluated by plaque assay on triplicate cultures of ST cells. Left y-axis represents infectious virus progeny at 24 hpi and right y-axis, cell viability determined by MTT assay of each corresponding cell line. IC50 values and SI values […]
[TGEV titers (PFU/ml): 1.1±0.1 x 108 in the absence of the drugs, […]
(1 picture or pasted object on this page, not shown here)

[16] = system: HCoV-229E, HCoV-OC43, and SARS-CoV-2; assay: Antiviral assays, summary over all tested HCoVs; assay type: cell-based, human coronaviruses
[17] = Severe acute respiratory syndrome coronavirus 2, Calu-3 2B4, specificity experiment (Fig. 3), Calu3 2B4
[18] = at 100 μM, Fig. 3, no drug 4 ± 0.9 × 10^6
[19] = at 100 μM, Fig. 3, no drug 1.8 ± 0.9 × 10^6
[20] = Betacoronavirus 1, OC43, Huh-7, read-out: IC50, virus yield, specificity experiment (Fig. 3), Huh-7, 48 hpi
[21] = Huh-7, read-out: IC50, virus yield, Huh-7, AV from 1 h before adsorption, 24 hpi, Fig. 1
[22] = Betacoronavirus 1, OC43, Huh-7, read-out: IC50, virus yield, Huh-7, AV from 1 h before adsorption, 48 hpi, Fig. 1

SMILES: O=C(O[C@@H]1Cc2c(O)cc(O)cc2O[C@@H]1c1ccc(O)c(O)c1)c1cc(O)c(O)c(O)c1 [ECG, epicatechin gallate]
- IC50 [1, 17]: 0.0501 mM
- SARS-CoV-2 titers [1]: 6 ± 0.3 × 10^4 PFU/mL

SMILES: O=C(O)c1cc(O)c(O)c(O)c1 [G, gallic acid]
- IC50 [1, 17]: 0.0405 mM
- SARS-CoV-2 titers [1]: 7.5 ± 0.2 × 10^4 PFU/mL
- inhibition of viral multiplication at nontoxic concentrations (HCoV-229E-GFP [2]; Huh-7, Fig. 3): Neither G nor PG inhibited viral multiplication
- HCoV-229E-GFP titers (HCoV-229E-GFP [2]; [18]): 3.1 ± 0.2 × 10^6 PFU/mL
- inhibition of viral multiplication at nontoxic concentrations (HCoV-OC43 [3]; Huh-7, Fig. 3): Neither G nor PG inhibited viral multiplication
- HCoV-OC43 titers (HCoV-OC43 [3]; [19]): 1.2 ± 0.2 × 10^6 PFU/mL

SMILES: CCCCCCCCOC(=O)c1cc(O)c(O)c(O)c1 [OG, octyl gallate]
- IC50 (HCoV-229E-GFP [2]; Huh-7, read-out: IC50, virus yield, specificity experiment (Fig. 3), Huh-7, 24 hpi): 3.9 µM
- HCoV-229E-GFP titers (HCoV-229E-GFP [2]; [18]): 1.4 ± 0.5 × 10^3 PFU/mL
- IC50 (HCoV-OC43 [3]; [20]): 2.56 µM
- HCoV-OC43 titers (HCoV-OC43 [3]; [19]): 5 ± 0.01 × 10^1 PFU/mL

SMILES: CCCOC(=O)c1cc(O)c(O)c(O)c1 [PG, propyl gallate]
- inhibition of viral multiplication at nontoxic concentrations (HCoV-229E-GFP [2]; Huh-7, Fig. 3): Neither G nor PG inhibited viral multiplication
- HCoV-229E-GFP titers (HCoV-229E-GFP [2]; [18]): 2.2 ± 0.3 × 10^6 PFU/mL
- IC50 (HCoV-OC43 [3]; [20]): 22.5 µM
- inhibition of viral multiplication at nontoxic concentrations (HCoV-OC43 [3]; Huh-7, Fig. 3): Neither G nor PG inhibited viral multiplication
- HCoV-OC43 titers (HCoV-OC43 [3]; [19]): 1.2 ± 0.3 × 10^6 PFU/mL

SMILES: CCC(CC)COC(=O)[C@H](C)N[P@](=O)(OC[C@H]1O[C@@](C#N)(c2ccc3c(N)ncnn23)[C@H](O)[C@@H]1O)Oc1ccccc1 [RDV, remdesivir]
- HCoV-229E-GFP titers (HCoV-229E-GFP [4]; at 160 nM RDV): 4 ± 0.2 × 10^2 PFU/mL
- selectivity index (SI=CC50/IC50) ([5]; SARS-CoV-2 omicron, Vero E6): 52
- IC50 ([5]; Vero E6): 0.00163 ± 0.0002 mM
- SARS-CoV-2 isolate 39896362_AG titers ([5]; at RDV 32 μM): 5 ± 0.01 × 10^1 PFU/mL
- selectivity index (SI=CC50/IC50) ([1]; SARS-CoV-2 Wuhan-Hu-1, Calu3 2B4): 102
- IC50 ([1]; Severe acute respiratory syndrome coronavirus 2, Calu-3 2B4, Calu3 2B4, Wuhan-Hu-1 strain, AV from 1 h before adsorption, Fig. 1): 0.00107 mM
- SARS-CoV-2 isolate MAD6 titers ([1]; at RDV 20 μM, Fig. 1): 6 ± 0.3 × 10^2 PFU/mL
- CC50 (in vitro [6]; 24 h cell incubation with AV): 0.043 mM
- CC50 (in vitro [6]; 48 h cell incubation with AV): 0.038 mM
- SARS-CoV-2 titers (SARS-CoV-2 (MAD6); at 8 μM RDV): 1.7 ± 0.2 × 10^3 PFU/mL
- average DRI (SARS-CoV-2 (MAD6)): 4.31
- selectivity index (SI=CC50/IC50) (HCoV-229E-GFP [2]): 1732
- IC50 (HCoV-229E-GFP [2]; [21]): 0.0144 ± 0.0041 µM
- HCoV-229E-GFP titers (HCoV-229E-GFP [2]; at RDV 500 nM, 24 hpi, no drug 3 ± 0.5 × 10^6, Fig. 1): 6 ± 0.1 × 10^2 PFU/mL
- CC50 (in vitro [7]): 0.085 mM
- HCoV-OC43 titers (HCoV-OC43 [8]; at 320 nM RDV): 1.6 ± 0.2 × 10^4 PFU/mL
- CC50 (in vitro [9]; 24 h cell incubation with AV): 0.025 mM
- CC50 (in vitro [9]; 48 h cell incubation with AV): 0.02 mM
- IC50 (HCoV-OC43 [3]; [22]): 0.046 µM
- selectivity index (SI=CC50/IC50) (HCoV-OC43 [3]; HCoV-OC43, Huh-7): 435
- HCoV-OC43 titers (HCoV-OC43 [3]; at RDV 500 nM, 48 hpi, no drug 3.1 ± 0.9 × 10^6, Fig. 1): 6 ± 0.1 × 10^2 PFU/mL
- CC50 (in vitro [10]): 0.109 mM

SMILES: CCCC(CCC)C(=O)O [VPA, valproic acid]
- HCoV-229E-GFP titers (HCoV-229E-GFP [4]; at 32 mM VPA): 5 ± 0.3 × 10^2 PFU/mL
- direct virucidal effect (change in virus titers) (HCoV-229E-GFP [11]): No decrease in virus titers
- direct virucidal effect (change in virus titers) (HCoV-OC43 [12]): No decrease in virus titers
- IC50 ([5]; Vero E6): 5.15 ± 0.3 mM
- SARS-CoV-2 isolate 39896362_AG titers ([5]; at VPA 128 mM): 1 ± 0.1 × 10^2 PFU/mL
- SARS-CoV-2 isolate MAD6 titers ([1]; at VPA 100 mM, Fig. 1): 5 ± 0.01 × 10^1 PFU/mL
- CC50 (in vitro [6]; 24 h cell incubation with AV): 95.7 mM
- CC50 (in vitro [6]; 48 h cell incubation with AV): 76.2 mM
- SARS-CoV-2 titers (SARS-CoV-2 (MAD6); at 16 mM VPA): 4 ± 0.1 × 10^4 PFU/mL
- average DRI (SARS-CoV-2 (MAD6)): 5.19
- IC50 ([13]; Severe acute respiratory syndrome coronavirus 2, AV added 0 hpi): 5.02 mM
- IC50 ([13]; Severe acute respiratory syndrome coronavirus 2, AV added 2 hpi): 5.04 mM
- IC50 ([13]; Severe acute respiratory syndrome coronavirus 2, AV added −2 hpi (1 h before adsorption)): 4.99 mM
- SARS-CoV-2 average titers ([13]; at 100 mM VPA, average of addition times, no drug 3.4 ± 0.2 × 10^5): 5 ± 0.01 × 10^1 PFU/mL
- IC50 (HCoV-229E-GFP [14]; read-out: IC50, HCoV-229E-GFP production, AV added 0 hpi): 9.64 mM
- IC50 (HCoV-229E-GFP [14]; read-out: IC50, HCoV-229E-GFP production, AV added 2 hpi): 9.49 mM
- IC50 (HCoV-229E-GFP [14]; read-out: IC50, HCoV-229E-GFP production, AV added −3 hpi (1 h before adsorption)): 9.48 mM
- HCoV-229E-GFP average titers (HCoV-229E-GFP [14]; at 40 mM VPA, average of addition times, no drug 4 ± 0.6 × 10^6): 6 ± 2 × 10^2 PFU/mL
- IC50 (HCoV-229E-GFP [2]; [21]): 9480 ± 1100 µM
- HCoV-229E-GFP titers (HCoV-229E-GFP [2]; at VPA 40 mM, 24 hpi, no drug 3 ± 0.5 × 10^6, Fig. 1): 2.5 ± 0.3 × 10^2 PFU/mL
- IC50 (HCoV-OC43 [15]; Betacoronavirus 1, OC43, read-out: IC50, HCoV-OC43 production, AV added 0 hpi): 9.69 mM
- IC50 (HCoV-OC43 [15]; Betacoronavirus 1, OC43, read-out: IC50, HCoV-OC43 production, AV added 2 hpi): 9.49 mM
- IC50 (HCoV-OC43 [15]; Betacoronavirus 1, OC43, read-out: IC50, HCoV-OC43 production, AV added −3 hpi (1 h before adsorption)): 9.87 mM
- HCoV-OC43 average titers (HCoV-OC43 [15]; at 40 mM VPA, average of addition times, no drug 3.5 ± 0.5 × 10^6): 5 ± 0.01 × 10^1 PFU/mL
- direct virucidal effect (change in virus titers) (SARS-CoV-2): No decrease in virus titers
- inhibition of TGEV multiplication (TGEV): inhibited the multiplication
- HCoV-OC43 titers (HCoV-OC43 [8]; at 32 mM VPA): 5 ± 0.01 × 10^1 PFU/mL
- CC50 (in vitro [9]; 24 h cell incubation with AV): 70 mM
- CC50 (in vitro [9]; 48 h cell incubation with AV): 66 mM
- IC50 (HCoV-OC43 [3]; [22]): 9330 ± 2100 µM
- HCoV-OC43 titers (HCoV-OC43 [3]; at VPA 40 mM, 48 hpi, no drug 3.1 ± 0.9 × 10^6, Fig. 1): 1.2 ± 0.1 × 10^2 PFU/mL
- IC50 ([16]; average over all tested HCoVs, read-out: average IC50 value): 7.2 mM
- IC50 ([16]; range over tested HCoVs, read-out: IC50 values, range over HCoVs): 5 to 9 mM
